Results taken from patent US12509424B2, “Compound and composition as PDGF receptor kinase inhibitor” (NIPPON SHINYAKU CO., LTD., priority 2019, dated 2025).

How the values were obtained:
[1] = biological target: TEL-PDGFRβ fusion gene transfected cells (Ba/F3); experiment: Suppression of proliferation of TEL-PDGFRβ fusion gene transfected Ba/F3 cells; assay type: cell-based, human; conditions: TEL-PDGFRβ expressing Ba/F3 cells, 72 hours, final concentration 0.1 to 10,000 nM; read-out: PDGFR β/BaF3 proliferation inhibition (IC50)
TEL-PDGFRβ fusion gene transfected cells (Ba/F3), sequence (P09619 33-1106 limits assumed, change not shown): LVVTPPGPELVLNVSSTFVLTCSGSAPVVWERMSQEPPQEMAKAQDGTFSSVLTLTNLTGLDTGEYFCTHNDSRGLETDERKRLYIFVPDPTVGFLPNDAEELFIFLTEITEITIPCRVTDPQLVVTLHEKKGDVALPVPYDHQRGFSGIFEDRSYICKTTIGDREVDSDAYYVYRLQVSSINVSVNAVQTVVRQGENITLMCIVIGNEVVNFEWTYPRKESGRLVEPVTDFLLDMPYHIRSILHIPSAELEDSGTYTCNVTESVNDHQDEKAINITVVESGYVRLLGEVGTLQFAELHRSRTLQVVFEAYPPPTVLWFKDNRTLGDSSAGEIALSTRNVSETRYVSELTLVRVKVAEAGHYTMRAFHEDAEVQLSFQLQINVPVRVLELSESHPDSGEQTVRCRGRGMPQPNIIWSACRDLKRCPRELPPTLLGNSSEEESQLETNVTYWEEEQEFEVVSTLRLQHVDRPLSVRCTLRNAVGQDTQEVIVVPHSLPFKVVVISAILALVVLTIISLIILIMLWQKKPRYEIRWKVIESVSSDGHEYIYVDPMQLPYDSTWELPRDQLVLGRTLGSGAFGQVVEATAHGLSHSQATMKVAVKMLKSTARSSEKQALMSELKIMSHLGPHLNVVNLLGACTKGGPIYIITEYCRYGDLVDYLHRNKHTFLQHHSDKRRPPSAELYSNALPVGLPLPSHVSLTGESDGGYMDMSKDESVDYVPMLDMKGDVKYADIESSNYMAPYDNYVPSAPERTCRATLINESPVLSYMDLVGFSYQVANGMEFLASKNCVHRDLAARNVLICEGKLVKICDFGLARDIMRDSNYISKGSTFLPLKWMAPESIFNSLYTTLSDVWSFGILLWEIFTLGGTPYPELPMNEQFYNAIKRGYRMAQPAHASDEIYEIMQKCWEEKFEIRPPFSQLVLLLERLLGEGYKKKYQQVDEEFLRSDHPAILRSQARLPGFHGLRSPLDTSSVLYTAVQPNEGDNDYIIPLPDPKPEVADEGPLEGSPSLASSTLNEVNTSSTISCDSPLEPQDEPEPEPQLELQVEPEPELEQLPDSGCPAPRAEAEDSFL
Text: 2. Preparation of Test Substance
4. Analysis of Measurement Results

PDGFR-β = PDGFR-β (Homo sapiens (Human), UniProt P09619); experiment: PDGFR-β tyrosine kinase inhibitory action (HTRF KinEASE-TK); assay type: biochemical; conditions: PDGFR-β enzyme 1 ng/μL, 30° C. for 30 minutes; read-out: PDGF-β IC50
PDGFR-β, sequence (P09619 33-1106): as the sequence (P09619 33-1106 limits assumed, change not shown) above
How it was run: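 Recombinant PDGFR-β at 1 ng/μL final with TK substrate-3-biotin in a substrate solution containing 0.6 μM ATP; buffer 50 mM HEPES pH 7.0, 5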

[2] = biological target: TEL-KIT fusion gene transfected cells (Ba/F3); experiment: Suppression of proliferation of TEL-KIT fusion gene transfected Ba/F3 cells; conditions: read-out: KIT/BaF3 proliferation inhibition (IC50); TEL-KIT expressing Ba/F3 cells, 72 hours, final concentration 0.1 to 10,000 nM;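 further: viable cells quantified via formazan from tetrazolium reduction, inhibition scaled with 0.1% DMSO control as 0% and medium-only blank as 100%, IC50 from two-parameter logistic fit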
TEL-KIT fusion gene transfected cells (Ba/F3), sequence (P10721 26-976 limits assumed, change not shown): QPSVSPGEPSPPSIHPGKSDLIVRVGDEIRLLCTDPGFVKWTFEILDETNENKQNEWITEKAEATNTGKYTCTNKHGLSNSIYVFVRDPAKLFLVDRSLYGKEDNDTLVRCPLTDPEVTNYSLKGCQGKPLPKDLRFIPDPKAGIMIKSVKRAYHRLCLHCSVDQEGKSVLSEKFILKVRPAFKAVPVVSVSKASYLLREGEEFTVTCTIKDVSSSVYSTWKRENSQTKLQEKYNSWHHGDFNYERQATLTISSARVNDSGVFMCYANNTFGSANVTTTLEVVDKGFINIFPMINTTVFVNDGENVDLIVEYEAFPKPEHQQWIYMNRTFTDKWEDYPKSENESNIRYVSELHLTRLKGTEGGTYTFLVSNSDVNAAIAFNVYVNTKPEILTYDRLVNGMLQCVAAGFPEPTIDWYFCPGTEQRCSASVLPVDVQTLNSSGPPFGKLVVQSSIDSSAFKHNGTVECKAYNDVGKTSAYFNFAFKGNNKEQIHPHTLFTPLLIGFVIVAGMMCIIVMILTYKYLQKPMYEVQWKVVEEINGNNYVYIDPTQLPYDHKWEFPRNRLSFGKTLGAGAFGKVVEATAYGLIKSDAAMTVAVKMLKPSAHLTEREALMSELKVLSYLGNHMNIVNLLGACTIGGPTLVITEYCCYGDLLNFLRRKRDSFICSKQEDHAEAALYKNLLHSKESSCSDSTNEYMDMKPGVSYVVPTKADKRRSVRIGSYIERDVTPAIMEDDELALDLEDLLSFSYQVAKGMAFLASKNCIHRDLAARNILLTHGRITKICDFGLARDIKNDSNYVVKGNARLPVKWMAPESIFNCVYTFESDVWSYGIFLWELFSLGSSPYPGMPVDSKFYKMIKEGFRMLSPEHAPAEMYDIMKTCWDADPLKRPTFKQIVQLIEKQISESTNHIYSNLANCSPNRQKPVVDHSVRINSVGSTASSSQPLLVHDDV
Text: Fabrication of TEL-PDGFRβ and TEL-KIT Fusion Gene Transfected Cells
Subsequently, the vectors for gene transfection were introduced using a transfection reagent (FuGENE6, Promega Corporation) into packaging cells derived from a human fetal kidney cell line, PLAT-E, in the logarithmic growth phase. Since the culture supernatant of PLAT-E after the gene transfection contained virus particles for gene transfection, it was collected and used as a medium for gene transfection. The medium for gene transfection was added to a plate coated with RetroNectin and incubated, and the virus particles were allowed to adhere to the plate. Thereafter, the mouse pro-B cell line Ba/F3 in the logarithmic growth phase was seeded onto the plate and infected with the virus to fabricate cells that proliferate in a PDGFRβ or KIT dependent manner.
The test substance was prepared with dimethyl sulfoxide (DMSO) to 10 mM and diluted with DMSO so as to reach a concentration of 0.0001 to 3 mM. Furthermore, it was diluted by 100 times with distilled water.
Measurement of Suppression Action Against Proliferation of TEL-PDGFRβ or TEL-KIT Expressing Cells
The day after TEL-PDGFRβ and TEL-KIT expressing cells were seeded onto 96 well plates, the prepared test substance solution was added thereto with a final concentration being 0.1 to 10,000 nM. After 72 hours, the viable cell count was measured using the amount of formazan generated from the reduction of a tetrazolium salt compound by the mitochondrial dehydrogenase of viable cells as an indicator.
Based on the amount of formazan in each condition, the suppression rate against cell proliferation was calculated when the amounts of formazan in the negative control (0.1% DMSO solution) and Blank (medium only) were defined as 0% and 100%, respectively. Subsequently, a nonlinear regression analysis with a two parameter logistic model for the log dose and suppression rate against cell proliferation was carried out using the SAS system (SAS Institute Inc.) to estimate the IC50 value.

[3] = system: pulmonary arterial smooth muscle cells; experiment: Suppression of proliferation of pulmonary arterial smooth muscle cells (PDGF-BB stimulation, BrdU); assay type: cell-based; conditions: PASMC, 24 h; healthy human derived pulmonary arterial smooth muscle cells; human PDGF-BB 10 ng/mL stimulation; BrdU uptake after 1 day; test substance final concentration 3 to 10,000 nM; read-out: Human normal PASMC proliferation suppression (PDGF stimulation_IC50)
How it was run: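 Healthy human pulmonary arterial smooth muscle cells, serum-starved a day in 0.1% FBS medium, were treated with compound at final 3 to 10,000 nM plus human PDGF-BB (final 10 ng/mL) and BrdU. After 1 day of culture, BrdU uptake was measured with an anti-BrdU antibody.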

Structure (SMILES) | IC50 [1] | IC50 (PDGFR-β) | IC50 [2] | IC50 [3]
Cc1ccc(C(=O)N[C@H]2CCCC[C@@H]2O)cc1NC(=O)c1cnc(NC(C)(C)C)s1 [Example 38, 2-(tert-butylamino)-N-(5-{[(1S,2S)-2-hydroxycyclohexyl]carbamoyl}-2-methylphenyl)-1,3-thiazole-5-carboxamide] | 7.3 nM | 79 nM | 1200 nM | 210 nM
Cc1ccc(C(=O)N[C@H]2CCCC[C@@H]2O)cc1NC(=O)c1cnc(NC2(C)CC2)s1 [Example 39, N-(5-{[(1S,2S)-2-hydroxycyclohexyl]carbamoyl}-2-methylphenyl)-2-[(1-methylcyclopropyl)amino]-1,3-thiazole-5-carboxamide] | 13 nM | 100 nM | 1000 nM | 150 nM
Cc1ccc(C(=O)N[C@H]2CCCC[C@@H]2O)cc1NC(=O)c1cnc(NC2(C)CCC2)s1 [Example 40, N-(5-{[(1S,2S)-2-hydroxycyclohexyl]carbamoyl}-2-methylphenyl)-2-[(1-methylcyclobutyl)amino]-1,3-thiazole-5-carboxamide] | 4.6 nM | 43 nM | 1200 nM | 75 nM
Cc1ccc(C(=O)N[C@H]2CCCC[C@@H]2O)cc1NC(=O)c1cnc(NCC(C)(C)C)s1 [Example 41, 2-[(2,2-dimethylpropyl)amino]-N-(5-{[(1S,2S)-2-hydroxycyclohexyl]carbamoyl}-2-methylphenyl)-1,3-thiazole-5-carboxamide] | 35 nM | 130 nM | 2100 nM | 210 nM
O=C(Nc1cc(C(=O)N[C@H]2CCCC[C@@H]2O)ccc1Cl)c1cncc(OCC2CC2)c1 [Example 44, N-(2-chloro-5-{[(1S,2S)-2-hydroxycyclohexyl]carbamoyl}phenyl)-5-(cyclopropylmethoxy)pyridine-3-carboxamide] | 21 nM | 190 nM | 940 nM | 140 nM

Second part, led by results:

IC50 [1] | IC50 (PDGFR-β) | IC50 [2] | Structure (SMILES) | IC50 [3]
41 nM | 230 nM | 7900 nM | Cc1ccc(C(=O)N[C@H]2CCCC[C@@H]2O)cc1NC(=O)c1cncc(-c2cc(F)c(F)c(F)c2)c1 [Example 42, N-(5-{[(1S,2S)-2-hydroxycyclohexyl]carbamoyl}-2-methylphenyl)-5-(3,4,5-trifluorophenyl)pyridine-3-carboxamide] | 95 nM
17 nM | 23 nM | 640 nM | Cc1ccc(C(=O)N[C@H]2CCCC[C@@H]2O)cc1NC(=O)c1cncc(-c2ccc(C3CC3)cc2)c1 [Example 43, 5-(4-cyclopropylphenyl)-N-(5-{[(1S,2S)-2-hydroxycyclohexyl]carbamoyl}-2-methylphenyl)pyridine-3-carboxamide] | 72 nM
0.8 nM | 15 nM | 92 nM | Cc1ccc(C(=O)N[C@H]2CCCC[C@@H]2O)cc1NC(=O)c1cnc2sccn12 [Example 45, N-(5-{[(1S,2S)-2-hydroxycyclohexyl]carbamoyl}-2-methylphenyl)imidazo[2,1-b][1,3]thiazole-5-carboxamide] | 56 nM
17 nM | 77 nM | 410 nM | Cc1c(F)cc(C(=O)N[C@H]2CCCC[C@@H]2O)cc1NC(=O)c1cncc(OCC2CC2)c1 [Example 46, 5-(cyclopropylmethoxy)-N-(3-fluoro-5-{[(1S,2S)-2-hydroxycyclohexyl]carbamoyl}-2-methylphenyl)pyridine-3-carboxamide] | 370 nM
75 nM | 390 nM | 7000 nM | Cc1ccc(C(=O)N[C@H]2CCCC[C@@H]2O)cc1NC(=O)c1cncc(OC2CC(F)(F)C2)c1 [Example 47, 5-[(3,3-difluorocyclobutyl)oxy]-N-(5-{[(1S,2S)-2-hydroxycyclohexyl]carbamoyl}-2-methylphenyl)pyridine-3-carboxamide] | 350 nM
